Strand notation (5' to 3'): a small letter for the sugar, then the base; units joined by * are phosphorothioate-linked, units joined directly phosphodiester-linked; [ ] holds rarer units or linkages, { } end groups; capitals alone tell only the bases. [Uhd] = commercial nucleoside analogue vector Uhd (Shanghai Hongene), the reference conjugate, placed in the sense strand; [NM031] = nucleoside analogue NM031 of the disclosure, C16 lipid conjugate (uridine-based); {VP} = vinylphosphonate on the antisense 5' end; e = 2'-O-(2-methoxyethyl) (MOE); m = 2'-O-methyl; f = 2'-fluoro

For series [1], the system named is target gene SOD1. The series can be described thus: Test Example 4: lipid conjugated siRNA sequences with different carbon chain lengths, SOD1 in mouse brain, lateral ventricle administration. It is filed as in vivo, C57BL/6j mice. Conditions: D5; for Left hemisphere Mean value of inhibition rate: left hemisphere (non-administration side); for Left hemisphere Mean value of inhibition rate / Right hemisphere Mean value of inhibition rate: lateral ventricle; for Right hemisphere Mean value of inhibition rate: right hemisphere (administration side). Also on record: Right hemisphere Mean value of inhibition rate / Left hemisphere Mean value of inhibition rate: unit not given here. As for the experimental part: 6-8 Week-old C57BL/6j mice were randomly grouped by body weight. Mice in each group were administered with siRNA by lateral ventricle administration, with an administration dose per mouse depending on a specific test. Taking Bregma in mouse brain as point 0 (origin), coordinates of right ventricle were found using the cerebral stereotaxic apparatus and position was marked on surface of skull (position of lateral ventricle was AP (anteroposterior, bregma anterior and posterior): −0.58 mm, ML (mediolateral, left and right of middle raphe): −1.2 mm, DV (dorsoventral, up and down cerebral dura mater plane): −2.2 mm). A dental electric drill was used to drill in the skull above a position of interest, and then medicament was injected into the lateral ventricle by a micro-dosing pump, wherein a total injection volume was 5 μL, and injection duration was 10 min. Needle was retained for 5 min after completion of injection, and then slowly withdrawn. Afterwards, needle hole was sealed with biomedical glue, and then head skin was adhered. After animals woke up, the animals were returned back to animal house and further fed. PBS control group was administered with the same volume of siRNA-free PBS solution. The day of administration was recorded as 0 day (D0), and the mice were sacrificed at observation point after the administration. Different parts of brain region were respectively taken and stored in the RNAlater.
(§1) RNA extraction: the above tissue samples were taken out from the RNAlater, and smashed for 60 s in Tissuelyser type II full-automatic tissue homogenizer, and total RNAs of various tissue samples were extracted using the full-automatic nucleic acid extraction instrument and the nucleic acid extraction kit from Zhejiang Hanwei Science and Technology Co. Ltd. according to methods described in instructions.
(§2) Reverse transcription reaction: 1 μg of the extracted total RNAs of the tissue samples were taken, and configured into 20 μL of reverse transcription system according to a method described in kit instructions by using a reverse transcription kit (Reverse Transcription System, A3500) from Promega Corporation and selecting Oligo (dT)15 reverse transcription primers, and the reverse transcription reaction was completed. After the reaction was ended, 80 μL of RNase-Free water was added into the reverse transcription system to provide cDNA solution for Real-time PCR detection.
(§3) Real-time PCR detection: 20 μL of Real-time PCR reaction system per PCR detection well was configured according to a method described in kit instructions using SYBR™ Select Master Mix (Catalog number: 4472908) reagent from ABI company. Each detection system contained 5 μL of cDNA template obtained from the above reverse transcription reaction, 10 μL of SYBR™ Select Master Mix, 0.5 μL of 10 μM upstream primers, 0.5 μL of 10 μM downstream primers, and 4 μL of RNase-Free H2O. The configured reaction system was subjected to Real-time PCR amplification on ABI StepOnePlus PCR instrument by a three-step method, wherein an amplification procedure was pre-denaturation at 95° C. for 10 min, then denaturation at 95° C. for 30 s, annealing at 60° C. for 30 s, and extension at 72° C. for 30 s; and processes of denaturation, annealing, and extension were repeated for 40 cycles. Gene expression differences were calculated by the ΔΔCt method after completion of the procedure.
In the real-time fluorescence quantitative PCR method, relative quantitative calculation of remaining expression level and inhibition rate of gene mRNA of interest in various test groups was performed by the ΔΔCt method, and the calculation method is as follows: […]

In series [2] the test system is target gene SOD1. The series can be described thus: Test Example 5: inhibitory activity of lipid conjugated siRNA sequences on SOD1 by intrathecal administration to rats. It is filed as in vivo, SD rats. Also on record: key to Lumbar segmen Mean value of inhibition rate / Cortex Mean value of inhibition rate / Thoracic segment Mean value of inhibition rate / Cervical segment Mean value of inhibition rate / Cerebellum Mean value of inhibition rate / Hippocampus Mean value of inhibition rate: inhibition rate of SOD1 mRNA, calculated by the ΔΔCt method. Conditions: intrathecal, 900 μg per rat, D7; for Cortex Mean value of inhibition rate: cerebral cortex; for Cervical segment Mean value of inhibition rate: spinal cord cervical segment; for Lumbar segmen Mean value of inhibition rate: spinal cord lumbar segment; for Thoracic segment Mean value of inhibition rate: spinal cord thoracic segment. The protocol:
6-8 Week-old SD rats were randomly grouped by body weight. Rats in each group were administered with siRNA by intrathecal administration, with an administration dose of 900 μg per rat. Injection was administered from rat spinal cord L5-L6, with an administration volume of 40 μL. Needle was retained for 2 min after completion of injection, and then slowly withdrawn. PBS control group was administered with the same volume of siRNA conjugate-free PBS solution. The day of administration was recorded as 0 day (D0), and the rats were sacrificed at observation point after administration. Different segments of spinal cord and different regions of brain were respectively taken and stored in the RNAlater.
as §1, §2, §3
(§4) In the real-time fluorescence quantitative PCR method, relative quantitative calculation of remaining expression level and inhibition rate of gene mRNA of interest in various test groups was performed by the ΔΔCt method, and the calculation method is as follows:
The present example evaluated, by an evaluation method for inhibitory activity on a target gene by intrathecal administration to rats, the inhibitory activity of siRNA sequence RZ899060 with the sense strand with the NM031 conjugation at Position 4 and vector-free siRNA sequence RZ899056, and Uhd conjugated siRNA reference sequence RZ899055 on the target gene SOD1 of interest in spinal cord and brain of rats.
6-8 Week-old SD rats were randomly grouped by body weight, 5 per group, 4 groups in total. Rats in each group were dosed with the above siRNA conjugates by intrathecal administration, with an administration dose of 900 μg per rat, and an administration volume of 40 μL. PBS control group was administered with the same volume of siRNA conjugate-free PBS solution. The day of administration was recorded as 0 day (D0), and the rats were sacrificed on D7 after administration. […]

Series [3] relates to target gene SOD1. Kind of series: Test Example 12: inhibitory activity of lipid conjugated siRNA sequence on SOD1 in mouse eyes (intravitreal administration). It counts as in vivo, C57BL/6J mice. The conditions noted are these: intravitreal, right eye, 7.5 μg per mouse, D14. The protocol: as §1, §2, §3, §4
The present test example evaluated, by an evaluation method for inhibitory activity on a target gene in mice, the inhibitory activity of siRNA sequence RZ899091 with the sense strand with the NM074 conjugation at Position 4 and siRNA reference sequence RX899121 without vector conjugation on the target gene SOD1 of interest in mice.
6-8 Week-old C57BL/6J mice were randomly grouped by body weight, 5 in each group and 3 groups in total. Mice in each group were administered with the above siRNA conjugate by intravitreal administration to right eyes of the mice, with an administration dose of 7.5 μg per mouse, and an administration volume of 2 μL. PBS control group was administered with the same volume of siRNA conjugate-free PBS solution. The day of administration was recorded as D0, and the mice were sacrificed at D14 after administration. Administration-side ocular retina, choroid, cornea, sclera and other tissues were respectively taken and stored in the RNAlater. RNA extraction, reverse transcription, and real-time fluorescence quantitative detection were performed on various tissues according to the above method, and gene expression differences were calculated by the above ΔΔCt method.

In the case of “RZ899092: siRNA sequence with the sense strand with the NM031 (C16) conjugation at Position 4; SEQ ID NO: 14 / 23 (sense mU*mU*mU[NM031]mAmAfUfCfCfUmCmAmCmUmCmUmAmAmA; antisense {VP}-mU*fU*mUmAmGfAmGmUmGmAmGfGmAfUeUfAmAmAmA*mU*mG)”, the “inhibitory activity compared with the vector-free siRNA sequence RX599002” value in the series on target gene SOD1 [1] (left and right hemisphere, lateral ventricle 150 μg per mouse) is listed as “superior inhibitory activity”. Also, in the series on target gene SOD1 [1] (150 μg per mouse), the “Left hemisphere Mean value of inhibition rate” value was 60.45 and the “Right hemisphere Mean value of inhibition rate” value was determined as 79.45. For the same substance, the “activity compared with Uhd conjugated reference sequence RZ899093 and NM200 (C22) conjugated reference sequence RZ899076” value in the series on target gene SOD1 [1] (right hemisphere (administration side) and left hemisphere (non-administration side), 150 μg per mouse) was “substantially comparable activity in the right hemisphere”.
As for “RZ899077: siRNA sequence with the sense strand with the NM201 (C22) conjugation at Position 4; SEQ ID NO: 19 / 24 (sense UUUNAAUCCUCACUCUAAA; antisense UUUAGAGUGAGGAUUAAAAUG; NM201 (C22) conjugate at sense position 4; modified_base 1..2 OTHER; 2'-methoxy and 5'-thiophosphate modified nucleotides; modified_base 3 OTHER; 2'-methoxy modified nucleotide; modified_base 4 OTHER; n is the synthetic nucleotide analog NM201 as described in the disclosure.; modified_base 5..6 OTHER; 2'-methoxy modified nucleotides; modified_base 7..10 OTHER; 2'-fluoro modified nucleotides; modified_base 11..19 OTHER; 2'-methoxy modified ; modified_base 1 OTHER; 2'-methoxy and 5'-thiovinylphosphonate modified nucleotide; modified_base 2 OTHER; 2'-fluoro and 5'-thiophosphate modified …)”, in the series with target gene SOD1 [1] (150 μg per mouse), the “Left hemisphere Mean value of inhibition rate” value came to 32.81 and the “Right hemisphere Mean value of inhibition rate” value is given as 43.33.
On to “RZ899056: vector-free siRNA sequence; SEQ ID NO: 1 / 22 (sense mU*mU*mUmUmAmAfUfCfCmUmCmAmCmUmCmUmAmAmA; antisense {VP}-mU*fU*mUmAmGfAmGmUmGmAmGmGmAfUmUfAmAmAmA*mU*mG)”, for which, in the series with target gene SOD1 [2], the “Cerebellum Mean value of inhibition rate” value is given as 50.22, the “Cortex Mean value of inhibition rate” value was 33.88, the “Hippocampus Mean value of inhibition rate” value was 41.25 and the “Cervical segment Mean value of inhibition rate” value is given as 70.86. Further, in the series on target gene SOD1 [2], the “Lumbar segmen Mean value of inhibition rate” value is reported as 87.58 and the “Thoracic segment Mean value of inhibition rate” value is listed as 89.69.
For the substance “RX599002: vector-free siRNA sequence; SEQ ID NO: 17 / 24 (sense mU*mU*mUmUmAmAfUfCfCfUmCmAmCmUmCmUmAmAmA; antisense {VP}-mU*fU*mUmAmGfAmGmUfGmAmGmGmAfUeUfAmAmAmA*mU*mG) [reference compound]”, in the series with target gene SOD1 [1] (150 μg per mouse), the “Left hemisphere Mean value of inhibition rate” value is on record as 55.55 and the “Right hemisphere Mean value of inhibition rate” value is 74.62.
Consider “RZ899055: Uhd conjugated siRNA reference sequence; SEQ ID NO: 4 / 22 (sense mU*mU*mU[Uhd]mAmAfUfCfCmUmCmAmCmUmCmUmAmAmA; antisense {VP}-mU*fU*mUmAmGfAmGmUmGmAmGmGmAfUmUfAmAmAmA*mU*mG)”, for which, in the series with target gene SOD1 [2], the “Cerebellum Mean value of inhibition rate” value is listed as 68.43, the “Cortex Mean value of inhibition rate” value is on record as 41.47, the “Hippocampus Mean value of inhibition rate” value is recorded as 48.56 and the “Cervical segment Mean value of inhibition rate” value is 81.31. Also, in the series on target gene SOD1 [2], the “Lumbar segmen Mean value of inhibition rate” value is given as 87.46 and the “Thoracic segment Mean value of inhibition rate” value is reported as 91.10.
With “RX899121: siRNA reference sequence without vector conjugation; SEQ ID NO: 25 / 23 (sense mU*mU*mUmUmAmAfUfCfCfUmCmAmCmUmCmUmAmAmA; antisense {VP}-mU*fU*mUmAmGfAmGmUmGmAmGfGmAfUeUfAmAmAmA*mU*mG) [reference compound]”, the “Choroid % Mean value of inhibition rate” value with target gene SOD1 [3] (choroid) is recorded as 3.16%. In the series on target gene SOD1 [3] (cornea and sclera), the “Cornea and sclera % Mean value of inhibition rate” value worked out at 5.35%. Besides, the “Kidney % Mean value of inhibition rate” value with target gene SOD1 [3] (kidney) turned out to be 2.89%. In addition, in the series on target gene SOD1 [3] (liver), the “Liver % Mean value of inhibition rate” value amounted to 5.35%. Moreover, in the series on target gene SOD1 [3] (retina), the “Retina % Mean value of inhibition rate” value is recorded as 17.47%.

The values above are taken from patent US20260132165A1, “MODIFIED NUCLEOSIDE ANALOGUE AND USE THEREOF, AND NUCLEOSIDE ANALOGUE-CONTAINING DOUBLE-STRANDED OLIGONUCLEOTIDE AND USE THEREOF” (RIGERNA THERAPEUTICS (BEIJING) CO., LTD., priority 2023, published 2026).
